According to ChEMBL document CHEMBL5370596, “Wulfenioidins D-N, Structurally Diverse Diterpenoids with Anti-Zika Virus Activity Isolated from Orthosiphon wulfenioides” (J Nat Prod, 2023):
Activity calls are given as the source filed them. No cut-off for these calls is given here.

Assays:
Vero = assay: (§1) Cytotoxicity against African green monkey Vero cells assessed as reduction in cell viability after 72 hrs by CCK-8 assay; type: toxicity, cell-based; details: chlorocebus sabaeus, vero, 72 h
[1] = as §1; type: toxicity, cell-based; details: chlorocebus sabaeus, Vero cells
Zika virus [2] = assay: Antiviral activity against ZIKV infected in African green monkey Vero cells assessed as inhibition of viral replication at 50 uM incubated for 72 hrs by qRT-PCR analysis; type: functional, organism-based
Zika virus [3] = assay: Antiviral activity against ZIKV infected in African green monkey Vero cells assessed as inhibition of viral replication incubated for 72 hrs by qRT-PCR analysis; type: functional, organism-based
Zika virus [4] = assay: Antiviral activity against ZIKV infected in African green monkey Vero cells assessed as inhibition of viral E protein expression incubated for 72 hrs by Western blot analysis; type: functional, organism-based; details: dose 5-20 µM
Zika virus [5] = assay: Antiviral activity against ZIKV infected in African green monkey Vero cells assessed as inhibition of viral E protein expression at 20 uM incubated for 72 hrs by immunofluorescence analysis; type: functional, organism-based

Row | SMILES | Activity (Vero) | CC50 at 72 h [1] [µM] | inhibition (Zika virus [2]) | EC50 (Zika virus [3]) [µM] | inhibition (Zika virus [4]) | inhibition (Zika virus [5])
1 | CCc1nc2c(C(C)C)cc3c(c2o1)[C@@]1(C)CCCC(C)(C)[C@@H]1CC3 | Toxic | – | – | – | – | –
2 | COC(C)(C)C1=Cc2ccc(C)c3c2[C@@](O)(C1=O)C(C)(C)CCC3 | – | > 100 | Active | 8 | Dose-Dependent Effect | Active
3 | Cc1nc2c(C(C)C)cc3c(c2o1)[C@@]1(C)CCCC(C)(C)[C@@H]1C=C3 | Toxic | – | – | – | – | –
4 | CC(C)c1cc2c(c3ocnc13)[C@@]1(C)CCCC(C)(C)[C@@H]1CC2 | Toxic | – | – | – | – | –
5 | CC1=C2CCCC(C)(C)[C@@H]2CC[C@@]12C=C(C(C)C)C(=O)O2 | Toxic | – | – | – | – | –
6 | CO[C@@H]1CCC(C)(C)Oc2c(O)c(C(C)C)cc3ccc(C)c1c23 | – | > 100 | Active | 8.07 | Dose-Dependent Effect | Active
